Source: patent US9718790B2, “Triazine derivative and pharmaceutical composition having an analgesic activity comprising the same” (SHIONOGI & CO., LTD., priority 2010, dated 2017)

Molecular target: human P2X3 receptor (Homo sapiens (Human), UniProt P56373)
Experiment: Evaluation of human P2X3 receptor inhibitory activity (Fluo-3 calcium fluorescence, FDSS 3000, ATP stimulation);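 further: stimulus was 50 nM ATP with fluorescence followed for 3 min, and the response per well was peak post-ATP fluorescence divided by the reading at measurement start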
Format: cell-based
Conditions: C6BU-1 cells stably expressing human P2X3 receptor, Fluo-3 fluorescence, FDSS 3000

Sequence of human P2X3 receptor (P56373 whole entry): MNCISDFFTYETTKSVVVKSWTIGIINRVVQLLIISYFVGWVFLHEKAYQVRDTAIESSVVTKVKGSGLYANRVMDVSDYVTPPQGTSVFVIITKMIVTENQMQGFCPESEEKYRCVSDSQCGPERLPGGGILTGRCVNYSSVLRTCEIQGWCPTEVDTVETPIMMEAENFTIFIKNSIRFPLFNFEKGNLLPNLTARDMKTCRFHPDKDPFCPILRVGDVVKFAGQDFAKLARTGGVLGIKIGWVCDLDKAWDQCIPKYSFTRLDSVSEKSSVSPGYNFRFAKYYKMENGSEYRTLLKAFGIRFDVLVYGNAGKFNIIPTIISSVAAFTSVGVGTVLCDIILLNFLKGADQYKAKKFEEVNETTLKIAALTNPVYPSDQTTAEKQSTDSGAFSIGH

SMILES	IC50
CC(=O)NCCn1c(=O)[nH]/c(=N\c2ccc(O[C@H](C)C(F)(F)F)cc2)n(Cc2ccc(Cl)cc2)c1=O [Compound I-1617]	27 nM
Cc1nc2ccc(/N=c3\[nH]c(=O)n(C[C@H](O)CO)c(=O)n3Cc3ccc(Cl)cc3)cc2s1 [Compound I-1618]	8 nM
Cc1nc2ccc(/N=c3\[nH]c(=O)n(CCCO)c(=O)n3Cc3ccc(Cl)cc3)cc2s1 [Compound I-1619]	6 nM
C[C@@H](Oc1ccc(/N=c2\[nH]c(=O)n(CCCO)c(=O)n2Cc2ccc(Cl)cc2)cc1)C(F)(F)F [Compound I-1620]	14 nM
CCn1c(=O)[nH]/c(=N\c2ccc(Oc3ccnc(O)c3)cc2)n(Cc2ccc(Cl)cc2)c1=O [Compound I-1621]	4 nM
CCc1nc2ccc(/N=c3\[nH]c(=O)n(CCCO)c(=O)n3Cc3ccc(Cl)cc3)cc2s1 [Compound I-1622]	4 nM
CC[C@@H](C)Oc1ccc(/N=c2\[nH]c(=O)n(CCCO)c(=O)n2Cc2ccc(Cl)cc2)cc1Cl [Compound I-1623]	7 nM
CCc1oc2ccc(/N=c3\[nH]c(=O)n(C[C@H](O)CO)c(=O)n3Cc3ccc(Cl)cc3)cc2c1C [Compound I-1624]	8 nM
CCc1oc2ccc(/N=c3\[nH]c(=O)n(CCCO)c(=O)n3Cc3ccc(Cl)cc3)cc2c1C [Compound I-1625]	6 nM
CC[C@@H](C)Oc1ccc(/N=c2\[nH]c(=O)n(C[C@H](C)C(=O)O)c(=O)n2Cc2ccc(Cl)cn2)cc1Cl [Compound I-1626]	18 nM
CCOC(=O)CCCn1c(=O)[nH]/c(=N\c2ccc3oc(CC)c(C)c3c2)n(Cc2ccc(C)cc2)c1=O [Compound I-1627]	9 nM
O=C(O)CCn1c(=O)[nH]/c(=N\c2ccc(OCc3ccccn3)cc2)n(Cc2ccc(Cl)cc2)c1=O [Compound I-1628]	683 nM
CCOC(=O)CCCn1c(=O)[nH]/c(=N\c2ccc3nc(CC)sc3c2)n(Cc2ccc(C)cc2)c1=O [Compound I-1629]	4 nM
CCc1oc2ccc(/N=c3\[nH]c(=O)n(CCCC(=O)O)c(=O)n3Cc3ccc(C)cc3)cc2c1C [Compound I-1630]	15 nM
CCc1nc2ccc(/N=c3\[nH]c(=O)n(CCCC(=O)O)c(=O)n3Cc3ccc(C)cc3)cc2s1 [Compound I-1631]	8 nM
O=C(O)CCn1c(=O)[nH]/c(=N\c2ccc(OCc3cccnc3)cc2)n(Cc2ccc(Cl)cc2)c1=O [Compound I-1632]	389 nM
CCc1oc2ccc(/N=c3\[nH]c(=O)n(CCO)c(=O)n3Cc3ccc(Cl)cc3)cc2c1C [Compound I-1633]	16 nM
Cc1nc2ccc(/N=c3\[nH]c(=O)n(CC4(C)COC(C)(C)OC4)c(=O)n3Cc3ccc(Cl)cc3)cc2s1 [Compound I-1635]	5 nM
CCc1oc2ccc(/N=c3\[nH]c(=O)n(CC4(C)COC(C)(C)OC4)c(=O)n3Cc3ccc(Cl)cc3)cc2c1C [Compound I-1636]	9 nM
CC(C)Cc1ccc(/N=c2\[nH]c(=O)n(CC(C)(CO)CO)c(=O)n2Cc2ccc(Cl)cc2)cc1Cl [Compound I-1637]	12 nM
COC(=O)CN1CCC(Cn2c(=O)[nH]/c(=N\c3ccc(OC(C)C)c(C)c3)n(Cc3ccc(Cl)cc3)c2=O)CC1 [Compound I-1638]	13 nM
COC(=O)CN1CCC(n2c(=O)[nH]/c(=N\c3ccc(OC(C)C)c(C)c3)n(Cc3ccc(Cl)cc3)c2=O)CC1 [Compound I-1639]	14 nM
Cc1cc(/N=c2\[nH]c(=O)n(CC3CN(C(=O)OC(C)(C)C)C3)c(=O)n2Cc2ccc(Cl)cc2)ccc1OC(C)C [Compound I-1640]	13 nM

SMILES	IC50
Cc1cc(/N=c2\[nH]c(=O)n(C3CN(C(=O)OC(C)(C)C)C3)c(=O)n2Cc2ccc(Cl)cc2)ccc1OC(C)C [Compound I-1641]	20 nM
CC1(C)OCC(Cn2c(=O)nc(Cc3cccc(C(F)(F)F)c3)n(Cc3ccc(Cl)cc3)c2=O)CO1 [Compound I-1642]	551 nM
Cc1nc2ccc(/N=c3\[nH]c(=O)n(CC(C)(CO)CO)c(=O)n3Cc3ccc(Cl)cc3)cc2s1 [Compound I-1643]	5 nM
CCc1oc2ccc(/N=c3\[nH]c(=O)n(CC(C)(CO)CO)c(=O)n3Cc3ccc(Cl)cc3)cc2c1C [Compound I-1644]	5 nM
CCOC(=O)CCn1c(=O)[nH]/c(=N\c2cccc(S(F)(F)(F)(F)F)c2)n(Cc2ccc(Cl)cc2)c1=O [Compound I-1646]	43 nM
Cc1cc(/N=c2\[nH]c(=O)n(CC3CCN(CC(=O)O)CC3)c(=O)n2Cc2ccc(Cl)cc2)ccc1OC(C)C [Compound I-1648]	160 nM
Cc1cc(/N=c2\[nH]c(=O)n(C3CCN(CC(=O)O)CC3)c(=O)n2Cc2ccc(Cl)cc2)ccc1OC(C)C [Compound I-1649]	285 nM
COC(=O)[C@@H](C)Cn1c(=O)[nH]/c(=N\c2ccc3oc(C)c(C)c3c2)n(Cc2ccc(Cl)cc2)c1=O [Compound I-1650]	9 nM
O=C(O)CCn1c(=O)[nH]/c(=N\c2cccc(S(F)(F)(F)(F)F)c2)n(Cc2ccc(Cl)cc2)c1=O [Compound I-1651]	54 nM
Cc1oc2ccc(/N=c3\[nH]c(=O)n(C[C@H](C)C(=O)O)c(=O)n3Cc3ccc(Cl)cc3)cc2c1C [Compound I-1653]	14 nM
Cc1cc(/N=c2\[nH]c(=O)n(CC3CNC3)c(=O)n2Cc2ccc(Cl)cc2)ccc1OC(C)C [Compound I-1654]	66 nM
CCc1oc2ccc(/N=c3\[nH]c(=O)n(CC(N)=O)c(=O)n3Cc3ccc(Cl)cc3)cc2c1C [Compound I-1656]	7 nM
CCc1oc2ccc(/N=c3\[nH]c(=O)n(CC(=O)NC)c(=O)n3Cc3ccc(Cl)cc3)cc2c1C [Compound I-1657]	9 nM
CCc1oc2ccc(/N=c3\[nH]c(=O)n(CC(=O)NCCO)c(=O)n3Cc3ccc(Cl)cc3)cc2c1C [Compound I-1658]	6 nM
Cc1nc2ccc(/N=c3\[nH]c(=O)n(CC(N)=O)c(=O)n3Cc3ccc(Cl)cc3)cc2s1 [Compound I-1659]	6 nM
CNC(=O)Cn1c(=O)[nH]/c(=N\c2ccc3nc(C)sc3c2)n(Cc2ccc(Cl)cc2)c1=O [Compound I-1660]	5 nM
Cc1nc2ccc(/N=c3\[nH]c(=O)n(CC(=O)NCCO)c(=O)n3Cc3ccc(Cl)cc3)cc2s1 [Compound I-1661]	6 nM
Cc1cc(Oc2ccc(/N=c3\[nH]c(=O)n(C[C@H](C)C(=O)O)c(=O)n3Cc3ccc(Cl)cc3)cc2)no1 [Compound I-1662]	11 nM
CCc1nc2ccc(/N=c3\[nH]c(=O)n(CCO)c(=O)n3Cc3ccc(Cl)cc3)cc2s1 [Compound I-1663]	8 nM
CCc1nc2ccc(/N=c3\[nH]c(=O)n(C[C@H](C)NC(C)=O)c(=O)n3Cc3ccc(Cl)cc3)cc2s1 [Compound I-1665]	7 nM
CCc1oc2ccc(/N=c3\[nH]c(=O)n(C[C@H](C)NC(C)=O)c(=O)n3Cc3ccc(Cl)cc3)cc2c1C [Compound I-1666]	10 nM
COC(=O)CCn1c(=O)[nH]/c(=N\C2CCCCC2)n(Cc2ccc(C)cc2)c1=O [Compound I-1668]	309 nM
Cc1nc2ccc(/N=c3\[nH]c(=O)n(CCC(N)=O)c(=O)n3Cc3ccc(Cl)cc3)cc2s1 [Compound I-1670]	7 nM

SMILES	IC50
Cc1ccc(Cn2c(=O)n(CCC(N)=O)c(=O)[nH]/c2=N\c2ccc3nc(C)sc3c2)cc1 [Compound I-1671]	6 nM
CCc1oc2ccc(/N=c3\[nH]c(=O)n(C[C@@H](C)NC(C)=O)c(=O)n3Cc3ccc(Cl)cc3)cc2c1C [Compound I-1673]	14 nM
Cc1ccc(Cn2c(=O)n(CCC(=O)O)c(=O)[nH]/c2=N\c2nc3ccccc3s2)cc1 [Compound I-1674]	971 nM
CCc1oc2ccc(/N=c3\[nH]c(=O)n(CCCC(=O)OC)c(=O)n3Cc3ccc(Cl)cc3)cc2c1C [Compound I-1700]	12 nM
CCn1c(=O)[nH]/c(=N\c2ccc3nc(C)sc3c2)n(Cc2ccc(Cl)cc2)c1=O [Compound I-1702]	4 nM
CCc1nc2ccc(/N=c3\[nH]c(=O)n(CC)c(=O)n3Cc3ccc(Cl)cc3)cc2s1 [Compound I-1703]	4 nM
CCc1oc2ccc(/N=c3\[nH]c(=O)n(CCCC(=O)O)c(=O)n3Cc3ccc(Cl)cc3)cc2c1C [Compound I-1704]	15 nM
CCc1nc2ccc(/N=c3\[nH]c(=O)n(CCCC(=O)O)c(=O)n3Cc3ccc(Cl)cc3)cc2s1 [Compound I-1705]	14 nM
CCc1oc2ccc(/N=c3\[nH]c(=O)n(C[C@H](CC)NC(C)=O)c(=O)n3Cc3ccc(Cl)cc3)cc2c1C [Compound I-1708]	17 nM
Cc1cc(/N=c2\[nH]c(=O)n(C3CNC3)c(=O)n2Cc2ccc(Cl)cc2)ccc1OC(C)C [Compound I-1709]	167 nM
CCc1oc2ccc(/N=c3\[nH]c(=O)n(CCCC(N)=O)c(=O)n3Cc3ccc(Cl)cc3)cc2c1C [Compound I-1710]	6 nM
CCc1nc2ccc(/N=c3\[nH]c(=O)n(CCCC(N)=O)c(=O)n3Cc3ccc(Cl)cc3)cc2s1 [Compound I-1711]	5 nM
O=c1[nH]/c(=N\c2ccc(Oc3ccnc(O)c3)cc2)n(Cc2ccc(Cl)cc2)c(=O)n1CCO [Compound I-1712]	4 nM
O=c1[nH]/c(=N\c2ccc(Oc3ccnc(O)c3)cc2)n(Cc2ccc(Cl)cc2)c(=O)n1CCCO [Compound I-1713]	3 nM
O=c1[nH]/c(=N\c2ccc(Oc3ccnc(O)c3)cc2)n(Cc2ccc(Cl)cc2)c(=O)n1CC(CO)CO [Compound I-1714]	3 nM
CCn1c(=O)[nH]/c(=N\c2ccc(Oc3ccnc(C(=O)NC)c3)cc2)n(Cc2ccc(Cl)cc2)c1=O [Compound I-1717]	2 nM
Cc1ccc(Cn2c(=O)n(CCC(=O)O)c(=O)[nH]/c2=N\c2ncc(-c3ccccc3)s2)cc1 [Compound I-1725]	953 nM
CC(C)Oc1ccc(/N=c2\[nH]c(=O)n(CCC(=O)O)c(=O)n2CCC2C[C@H]3CC[C@@H]2C3)cc1F (stereo partly shown) [Compound I-1729]	669 nM
O=c1[nH]/c(=N\c2ccc(Oc3ccnc(O)c3)cc2)n(Cc2ccc(Cl)cc2)c(=O)n1C[C@H](O)CO [Compound I-1731]	5 nM
COc1ccc(Oc2ccc(/N=c3\[nH]c(=O)n(CCO)c(=O)n3Cc3ccc(Cl)cc3)cc2)cn1 [Compound I-1732]	11 nM
COc1ccc(Oc2ccc(/N=c3\[nH]c(=O)n(CCCO)c(=O)n3Cc3ccc(Cl)cc3)cc2)cn1 [Compound I-1733]	3 nM
